Data on three compounds can be found in US5464820A, “Specific inhibitors of tissue kallikrein” (priority 1993, dated 1995).

For one series, the target named is T1, urokinase (UK) (Homo sapiens, UniProt P00749).
T1 construct: purchased Sigma Chemical Company (St. Louis, Mo.)
The series is described as follows: Inhibition of urokinase (KI). Conditions: Table 7; read-out: K1 UK. In kind it is biochemical. From the text: (§1) Assay methods were based on the cleavage of chromogenic substrate S-2266 (D-Val-Leu-Arg-pNA) (Kabi; Charlotte, N.C.) by porcine pancreatic kallikrein (Sigma Chemical Company; St. Louis, Mo.) to yield an increase in absorbance at 405 nm. By changing the substrate and enzyme, the general method has been extended to measure the inhibition of human tissue kallikrein (HTK or human urinary kallikrein HUK), human plasma kallikrein (HPK), plasmin, and urokinase (UK). In all assays, the robot dilutes the inhibitor into a series of wells and adds substrate and buffer. Chromogenic reactions are started by the addition of enzyme. Changes in the absorbance at 405 nm in an array of wells were recorded. All manipulations were performed by the instrument from reservoirs containing substrate, inhibitor, diluent (water), buffer, or enzyme.

Series [1] has as its target human plasma kallikrein (HPK) (Homo sapiens, UniProt P03952). The series is described as follows: Inhibition of human plasma kallikrein (KI). The series is classed as biochemical. Conditions: Table 7, in mM; read-out: K1 HPK.
Excerpt: as §1

Series [2] deals with porcine pancreatic kallikrein (PPK) (Sus scrofa, UniProt P00752). The series is described as follows: Inhibition of porcine pancreatic kallikrein, cleavage of chromogenic substrate S-2266 (KI). The series is classed as biochemical.
Sequence of porcine pancreatic kallikrein (PPK) (P00752 8-87 limits assumed): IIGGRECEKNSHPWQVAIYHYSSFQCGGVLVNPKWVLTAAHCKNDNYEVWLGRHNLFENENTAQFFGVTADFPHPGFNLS
Sequence of porcine pancreatic kallikrein (PPK) (P00752 95-246 limits assumed): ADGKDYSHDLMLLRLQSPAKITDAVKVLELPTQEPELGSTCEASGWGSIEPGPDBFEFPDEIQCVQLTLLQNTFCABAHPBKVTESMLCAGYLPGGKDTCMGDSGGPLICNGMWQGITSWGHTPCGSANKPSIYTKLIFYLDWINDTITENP
In series [3] the target is T2, human urinary kallikrein (HUK) (Homo sapiens, UniProt P06870).
T2 construct: Human urinary kallikrein (HUK) was purified from human urine; from tissue
T2 sequence (P06870 25-262): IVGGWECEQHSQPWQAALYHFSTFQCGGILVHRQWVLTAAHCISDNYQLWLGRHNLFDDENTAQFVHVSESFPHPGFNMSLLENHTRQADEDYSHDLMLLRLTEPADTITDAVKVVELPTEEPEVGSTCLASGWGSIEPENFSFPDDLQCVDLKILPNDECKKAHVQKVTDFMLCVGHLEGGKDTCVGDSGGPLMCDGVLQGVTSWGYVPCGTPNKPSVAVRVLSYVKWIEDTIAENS
The series is described as follows: Inhibition of human urinary (tissue) kallikrein (KI). In kind it is biochemical. On the procedure: Human urinary kallikrein (HUK) was purified from human urine. Briefly, urine was subjected to ultrafiltration to concentrate the protein components which were applied to approtinin-CH-Sepharose affinity columns. Active fractions from these columns were next applied to Sephadex G-100 gel filtration and collected as fractions. The pH of each fraction was determined immediately upon elution, and the fraction was neutralized by addition of 2.0 ml of 2M Tris-HCL buffer, pH 8.0. Porcine pancreatic 24-kallikrein (PPK), at 50 units/mg protein; 1.0 units hydrolyses 1.0 μM BAEE (benzoyl -L-arginine ethyl ester) to N-a-benzoyl-L-arginine/minute at pH 8.7 at 25° C., was purchased from Sigma Chemical Company (St. Louis, Mo.). […] All other enzymes were purchased from Sigma Chemical Company (St. Louis, Mo.).
Dixon plots were used for data reduction and for calculation of […].
as §1

The nature of series [4]: Measured lipophilicity (KO/W). To be noted: Table 2, measured lipophilicity, change relative to Gly analog. In kind it is physicochemical. From the text: Listed in Table 2 are KI values along with changes in volume (ΔV), measured lipophilicity (ΔKO/W), and calculated lipophilicity (ΔCLOGP). Some of the substrates containing a D-amino acid residue at P3 are rapidly hydrolyzed by tissue kallikrein. To overcome this problem, a new method was also used to determine KI (see Example 6).

Read-outs that look alike come from different tables or passages of the source. Starred links: 1 amine or outer side, 2 acyl side, 3 side chain; linkers in the order of their positions; H or OH if unused. Non-standard residues stand in square brackets, D forms with d. Residues, ends and D or L forms follow the SMILES beside them. X3 = O=C([C@H](N[*:1])C12CC3CC(CC(C3)C1)C2)[*:2]; Phe(4-NH2) = Nc1ccc(C[C@H](N)C(=O)O)cc1; X2 = CCC(CC)[C@@H](N[*:1])C(=O)[*:2]

Sequence of human plasma kallikrein (HPK) (P03952 20-638): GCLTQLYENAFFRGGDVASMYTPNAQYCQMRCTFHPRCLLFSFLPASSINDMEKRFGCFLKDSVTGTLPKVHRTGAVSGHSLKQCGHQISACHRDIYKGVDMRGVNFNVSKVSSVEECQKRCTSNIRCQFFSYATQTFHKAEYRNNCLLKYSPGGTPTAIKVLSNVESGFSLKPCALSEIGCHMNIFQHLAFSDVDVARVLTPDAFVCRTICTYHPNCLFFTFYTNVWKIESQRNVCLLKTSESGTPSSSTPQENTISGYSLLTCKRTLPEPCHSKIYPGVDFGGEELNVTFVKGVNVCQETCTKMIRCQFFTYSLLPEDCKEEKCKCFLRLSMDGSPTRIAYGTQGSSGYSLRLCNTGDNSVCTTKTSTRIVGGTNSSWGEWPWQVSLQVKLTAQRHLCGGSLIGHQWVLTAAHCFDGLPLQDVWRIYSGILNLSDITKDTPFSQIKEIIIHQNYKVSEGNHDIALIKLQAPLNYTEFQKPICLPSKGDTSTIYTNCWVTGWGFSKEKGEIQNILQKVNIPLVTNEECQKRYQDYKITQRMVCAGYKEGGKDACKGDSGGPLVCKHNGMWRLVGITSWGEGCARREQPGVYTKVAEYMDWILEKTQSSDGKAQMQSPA

Take `CC(C)[C@H](NC(=O)[C@H](CO)NC(=O)[C@H](Cc1ccc(N)cc1)NC(=O)[C@H](Cc1ccccc1)NC(=O)[C@@H]1CCCN1)C(=O)N[C@@H](CCC(N)=O)C(N)=O` [KIDZ-6, Pro-Phe-Aph-Ser-Val-Gla] (H-PF[Phe(4-NH2)]SVQ-NH2): the Ki was > 20000 µM on urokinase (UK); > 10 mM in series [1]; 36 µM in series [2] (Table 7, read-out: K1 PPK); < 50 µM in series [2] (text b391, read-out: PPK KI); 21 µM in series [3] (Table 7, read-out: K1 HUK); < 50 µM in series [3] (text b391, read-out: HUK KI).

With `CCC(CC)[C@@H](N)C(=O)N[C@@H](Cc1ccccc1)C(=O)N[C@@H](CCCNC(=N)N)C(=O)N[C@@H](CO)C(=O)N[C@H](C(=O)N[C@@H](CCC(N)=O)C(N)=O)C(C)C` [KKI-87, [D-Ile(4Me)]-Phe-Arg-Ser-Val-Gln] (H-[X2]FRSVQ-NH2; N-terminus assumed), the “ΔLog KO/W” value in series [4] came out at 1.11.

As for `CC(C)[C@H](NC(=O)[C@H](CO)NC(=O)[C@H](CCCNC(=N)N)NC(=O)[C@H](Cc1ccccc1)NC(=O)[C@H](N)C12CC3CC(CC(C3)C1)C2)C(=O)N[C@@H](CCC(N)=O)C(N)=O` [KKI-88, [D-Adg]-Phe-Arg-Ser-Val-Gln] (H-[X3]FRSVQ-NH2; N-terminus assumed), the “ΔLog KO/W” value in series [4] is given as 1.88.
